Source: article PMC6450621, “Changes of drug pharmacokinetics mediated by downregulation of kidney organic cation transporters Mate1 and Oct2 in a rat model of hyperuricemia” (PLoS ONE, 2019)
Values joined by “and” are separate entries in the source; they are usually repeats but may differ in a detail not shown here. Equal entries are not always repeated.

Tests used:
[1] = Pharmacokinetic study after intravenous administration in control and hyperuricemic rats (plasma, urine, kidney); conditions: for AUC0-4 / Kp, kidney / Kp at 4 h: creatinine; for Kp at 4 h / AUC(0-t) / concentration at 0.5 min / concentration at 30 min / concentration at 60 min: rat; for Kp at 4 h: kidney; for AUC(0-t) / concentration at 0.5 min / concentration at 30 min / concentration at 60 min: plasma; for concentration at 0.5 min / concentration at 30 min / concentration at 60 min: Plasma concentration;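 as to all read-outs here: Pentobarbital-anesthetized rats with cannulated bladder, jugular plasma, timed urine and saline kidney homogenate assayed by HPLC or LC-MS/MS, Kp as kidney over plasma level at 4 h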
Method: Rats were anesthetized with pentobarbital, and the bladder was cannulated with polyethylene tubing (inside diameter 0.5 mm, outside diameter 0.8 mm). […] Blood was drawn through the jugular vein, and plasma was obtained by centrifugation at 3,000 rpm for 10 min at 4°C. Urine was collected at the designated times. […] All samples were stored at -80°C until measurement.
If necessary, plasma and urine were diluted 10- to 100-fold and 10- to 10000-fold with saline, respectively, for high-performance liquid chromatography (HPLC) or liquid chromatography/tandem mass spectrometry (LC-MS/MS) measurement. […] Prepared samples were mixed for 1 min and centrifuged at 15,000 rpm for 5 min at 4°C. The resultant supernatant was used for LC-MS/MS analysis. The LC-MS/MS system consisted of a triple-quadrupole mass spectrometer (API 3200^TM, SCIEX, Foster City, CA) coupled with an ultrafast liquid chromatography system (LC-20AD, Shimadzu, Kyoto, Japan). […] For metformin, the mobile phase consisted of 0.1% formic acid and acetonitrile (30 : 70), and the flow rate was 0.4 mL/min.
The plasma concentration-time data were analyzed by non-compartmental analysis. The area under the plasma concentration-time curve (AUC0-4) was obtained by application of the trapezoidal rule from time 0 to 4 h. AUC from 0 to infinity (AUCinf) was estimated by extrapolation to infinity.

human MATE1 = molecular target: T1, human MATE1 (Homo sapiens, UniProt Q96FL8); test: Uptake of [3H]MPP+ by MATE1-expressing HEK293 cells; format: cell-based; conditions: for MATE1-mediated uptake of MPP+, % of Control: after subtraction of uptake by mock cells
T1 construct: expressed in transfected cells; host or cells: HEK293 (HEK293/hMATE1; gift from Dr. Inoue, Tokyo University of Pharmacy and Life Science)
T1 sequence (Q96FL8 1-570): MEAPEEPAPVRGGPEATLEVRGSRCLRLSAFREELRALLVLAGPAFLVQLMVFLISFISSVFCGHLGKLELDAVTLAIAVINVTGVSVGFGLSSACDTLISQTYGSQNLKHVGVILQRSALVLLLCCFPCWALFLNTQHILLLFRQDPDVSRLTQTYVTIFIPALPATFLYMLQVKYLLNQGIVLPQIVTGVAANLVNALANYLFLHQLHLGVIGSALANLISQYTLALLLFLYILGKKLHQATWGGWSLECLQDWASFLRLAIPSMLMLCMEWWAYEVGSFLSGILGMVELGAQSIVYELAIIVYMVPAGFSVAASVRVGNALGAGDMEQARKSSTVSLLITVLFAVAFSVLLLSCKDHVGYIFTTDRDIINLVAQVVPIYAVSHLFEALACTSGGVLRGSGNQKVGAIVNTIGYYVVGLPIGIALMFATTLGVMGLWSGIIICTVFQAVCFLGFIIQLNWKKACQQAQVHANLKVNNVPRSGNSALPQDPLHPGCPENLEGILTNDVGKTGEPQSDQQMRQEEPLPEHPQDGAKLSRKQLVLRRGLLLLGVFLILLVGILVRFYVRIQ
Method: HEK293 cells transfected with human MATE1 (HEK293/hMATE1) and vector alone (mock) were gifts from Dr. Inoue (Tokyo University of Pharmacy and Life Science). […] HEK293/mock and HEK293/hMATE1 cells were plated at a density of 3.0 × 10^5 cells/well on 24-well plates and cultured for two days before an uptake assay. […] Radioactivity was measured with a liquid scintillation counter (Hitachi Aloka Medical, Tokyo, Japan). Part of the lysate was used for the determination of total protein amount with Bio-Rad protein assay dye reagent. Uptake of MPP^+ was expressed as a cell-to-medium ratio (μL/mg protein) obtained by dividing the uptake amount by the concentration of substrate in the TM. Percentages of control were calculated as the ratio of MATE1-mediated uptake of MPP^+ that obtained after subtraction of the uptake of MPP^+ by mock cells in compound treated groups to that in control group.

[2] = Plasma concentration of oxonic acid and adenine in hyperuricemic rats; format: in vivo, rat; conditions: hyperuricemic rats given oral oxonic acid […] and adenine 0.1 g/kg; detection limit 100 μM for oxonic acid
Mock cells = test: Uptake of MPP+ by mock cells (background for MATE1-expressing cells); format: cell-based; conditions: 100 µM; replicates and mean
Method: Dunnett's test was used for uptake study to compare the control group to groups treated with drugs.
Percentages of control were calculated as the ratio of MATE1-mediated uptake of MPP^+ that obtained after subtraction of the uptake of MPP^+ by mock cells in compound treated groups to that in control group.

[3] = Inulin clearance in control and hyperuricemic rats; format: in vivo, rat; conditions: Day 10, inulin 100 mg/kg iv
Method: Urine was collected at the designated times. […] All samples were stored at -80°C until measurement.
Inulin was measured by the anthrone method. After adding 500 mL concentrated sulfuric acid to 200 mL distilled water and cooling the solution to room temperature, 1.4 g anthrone (Sigma Aldrich) was added to it at 56°C to prepare the anthrone reagent. An aliquot of the reagent (400 μL) was added to 10 μL of plasma or urine suitably diluted with saline. The tube containing the sample was immersed in ice-cold water, shaken well and then allowed to react for 10 min at 56°C. The vial was immersed in ice-cold water to stop the reaction. The absorbance at 636 nm was measured with a spectrophotometer (UVmini1240, Shimadzu).

[4] = control rats, individual rats and mean
[5] = hyperuricemic rats, individual rats and mean

Compound: CN1CC(=O)NC1=N [Creatinine, creatinine]
- Plasma concentration ([1]; control rats, 0.5 min after iv metformin 30 mg/kg or cephalexin 10 mg/kg (creatinine endogenous), individual rat): 19.0 µM and 21.0 µM
- Urinary excretion (cumulative) ([1]; control rats, 10 min, individual rats and mean): 0.04 mg and 0.06 mg and 0.09 mg and 0.07 mg
- Urinary excretion (cumulative) ([1]; control rats, 20 min, individual rats and mean): 0.10 mg and 0.12 mg and 0.16 mg and 0.13 mg
- Urinary excretion (cumulative) ([1]; control rats, 30 min, individual rats and mean): 0.13 mg and 0.19 mg and 0.22 mg and 0.18 mg
- Plasma concentration ([1]; control rats, 30 min after iv metformin 30 mg/kg or cephalexin 10 mg/kg (creatinine endogenous), individual rat): 20.1 µM and 20.4 µM
- Urinary excretion (cumulative) ([1]; control rats, 60 min, individual rats and mean): 0.18 mg and 0.30 mg and 0.32 mg and 0.27 mg
- Plasma concentration ([1]; control rats, 60 min after iv metformin 30 mg/kg or cephalexin 10 mg/kg (creatinine endogenous), individual rat): 18.9 µM and 19.0 µM
- Urinary excretion (cumulative) ([1]; control rats, 120 min, individual rats and mean): 0.46 mg and 0.61 mg and 0.52 mg and 0.53 mg
- Urinary excretion (cumulative) ([1]; control rats, 240 min, individual rats and mean): 0.98 mg and 1.44 mg and 1.32 mg and 1.25 mg
- AUC0-4 [1, 4]: 5400 µM·min and 5463 µM·min
- Kp, kidney [1, 4]: 10.4 and 11.3
- AUC0-4 [1, 5]: 10502 µM·min and 8634 µM·min
- Kp, kidney [1, 5]: 11.7 and 17.3
- Plasma concentration ([1]; hyperuricemic rats, 0.5 min after iv metformin 30 mg/kg or cephalexin 10 mg/kg (creatinine endogenous), individual rat): 36.4 µM and 30.6 µM
- Urinary excretion (cumulative) ([1]; hyperuricemic rats, 10 min, individual rats and mean): 0.12 mg (3×) and 0.11 mg
- Urinary excretion (cumulative) ([1]; hyperuricemic rats, 20 min, individual rats and mean): 0.19 mg (3×) and 0.20 mg
- Urinary excretion (cumulative) ([1]; hyperuricemic rats, 30 min, individual rats and mean): 0.26 mg (2×) and 0.28 mg and 0.25 mg
- Plasma concentration ([1]; hyperuricemic rats, 30 min after iv metformin 30 mg/kg or cephalexin 10 mg/kg (creatinine endogenous), individual rat): 34.4 µM and 30.6 µM
- Urinary excretion (cumulative) ([1]; hyperuricemic rats, 60 min, individual rats and mean): 0.42 mg and 0.39 mg and 0.44 mg and 0.43 mg
- Plasma concentration ([1]; hyperuricemic rats, 60 min after iv metformin 30 mg/kg or cephalexin 10 mg/kg (creatinine endogenous), individual rat): 34.5 µM and 36.2 µM
- Urinary excretion (cumulative) ([1]; hyperuricemic rats, 120 min, individual rats and mean): 0.69 mg and 0.58 mg and 0.73 mg and 0.76 mg
- Urinary excretion (cumulative) ([1]; hyperuricemic rats, 240 min, individual rats and mean): 1.22 mg and 0.95 mg and 1.24 mg and 1.48 mg
- Kp at 4 h ([1]; intravenous, control rats, individual rats and mean): 8.8
- Kp at 4 h ([1]; intravenous, hyperuricemic rats, individual rats and mean): 12
- AUC(0-t) ([1]; intravenous, AUC0-4, creatinine, control rats, individual rats and mean): 87.6 µM·h
- AUC(0-t) ([1]; intravenous, AUC0-4, creatinine, hyperuricemic rats, individual rats and mean): 171 µM·h
- concentration at 0.5 min ([1]; intravenous, control rats, 0.5 min after iv metformin 30 mg/kg or cephalexin 10 mg/kg (creatinine endogenous), individual rat): 17.7 µM
- concentration at 0.5 min ([1]; intravenous, control rats, 0.5 min after iv metformin 30 mg/kg or cephalexin 10 mg/kg (creatinine endogenous), mean n=3): 19.2 µM
- concentration at 30 min ([1]; intravenous, control rats, 30 min after iv metformin 30 mg/kg or cephalexin 10 mg/kg (creatinine endogenous), individual rat): 19.5 µM
- concentration at 30 min ([1]; intravenous, control rats, 30 min after iv metformin 30 mg/kg or cephalexin 10 mg/kg (creatinine endogenous), mean n=3): 20 µM
- concentration at 60 min ([1]; intravenous, control rats, 60 min after iv metformin 30 mg/kg or cephalexin 10 mg/kg (creatinine endogenous), individual rat): 22.9 µM
- concentration at 60 min ([1]; intravenous, control rats, 60 min after iv metformin 30 mg/kg or cephalexin 10 mg/kg (creatinine endogenous), mean n=3): 20.3 µM
- concentration at 0.5 min ([1]; intravenous, hyperuricemic rats, 0.5 min after iv metformin 30 mg/kg or cephalexin 10 mg/kg (creatinine endogenous), individual rat): 24.6 µM
- concentration at 0.5 min ([1]; intravenous, hyperuricemic rats, 0.5 min after iv metformin 30 mg/kg or cephalexin 10 mg/kg (creatinine endogenous), mean n=3): 30.5 µM
- concentration at 30 min ([1]; intravenous, hyperuricemic rats, 30 min after iv metformin 30 mg/kg or cephalexin 10 mg/kg (creatinine endogenous), individual rat): 25.9 µM
- concentration at 30 min ([1]; intravenous, hyperuricemic rats, 30 min after iv metformin 30 mg/kg or cephalexin 10 mg/kg (creatinine endogenous), mean n=3): 30.3 µM
- concentration at 60 min ([1]; intravenous, hyperuricemic rats, 60 min after iv metformin 30 mg/kg or cephalexin 10 mg/kg (creatinine endogenous), individual rat): 26.5 µM
- concentration at 60 min ([1]; intravenous, hyperuricemic rats, 60 min after iv metformin 30 mg/kg or cephalexin 10 mg/kg (creatinine endogenous), mean n=3): 32.4 µM
- AUC(0-t) ([1]; iv, AUC0-4, control rats, iv metformin 30 mg/kg or cephalexin 10 mg/kg, creatinine endogenous, mean n=3): 89.5 µM·h
- AUC(0-t) ([1]; iv, AUC0-4, hyperuricemic rats, iv metformin 30 mg/kg or cephalexin 10 mg/kg, creatinine endogenous, mean n=3): 163 µM·h

Compound: Nc1ncnc2nc[nH]c12 [adenine]
- MATE1-mediated uptake of MPP+, % of Control (human MATE1; Adenine 50 µM, replicates and mean): 68.3 % of Control and 107.0 % of Control
- MATE1-mediated uptake of MPP+, % of Control (human MATE1; Adenine 500 µM, replicates and mean): 89.5 % of Control and 71.0 % of Control and 100.5 % of Control
- MATE1-mediated uptake of MPP+, % of Control (human MATE1; Adenine 500 µM, replicates and mean, mean): 87.0 % of Control
- Plasma concentration [2]: lower than 100 μM

Compound: CN/C(=N/CCSCc1nc[nH]c1C)NC#N [cimetidine]
- C/M ratio of MPP+ uptake, Mock cells (Mock cells): 9.40 µL/mg protein and 10.25 µL/mg protein and 9.69 µL/mg protein
- MATE1-mediated uptake of MPP+, % of Control (human MATE1; 100 µM, replicates and mean, 100 µM): 5.0 % of Control and 14.6 % of Control
- C/M ratio of MPP+ uptake, MATE1-expressing cells (human MATE1; 100 µM, replicates and mean): 36.0 µL/mg protein and 18.8 µL/mg protein
- MATE1-mediated uptake of [3H]MPP+, percentage of control (human MATE1; positive control Mate1 inhibitor, concentration not given, HEK293/hMATE1): 8.2%

Compound: O=c1[nH]c(=O)c2[nH]c(=O)[nH]c2[nH]1 [uric acid]
- MATE1-mediated uptake of [3H]MPP+, percentage of control (human MATE1; 50 μM test compound, HEK293/hMATE1 minus mock, 0.25 nM [3H]MPP+, 0.5 min, 37°C): 102.0%
- MATE1-mediated uptake of [3H]MPP+, percentage of control (human MATE1; 500 μM test compound, HEK293/hMATE1 minus mock, 0.25 nM [3H]MPP+, 0.5 min, 37°C): 100.7%
- Inhibitory effect on MATE1-mediated MPP+ uptake (human MATE1; 50 and 500 μM of each): No inhibitory effects
- MATE1-mediated uptake of MPP+, % of Control (human MATE1; Uric acid 50 µM, replicates and mean): 96.8 % of Control and 81.0 % of Control and 128.4 % of Control
- MATE1-mediated uptake of MPP+, % of Control (human MATE1; Uric acid 50 µM, replicates and mean, mean): 102.0 % of Control
- MATE1-mediated uptake of MPP+, % of Control (human MATE1; Uric acid 500 µM, replicates and mean): 87.8 % of Control and 117.9 % of Control and 96.4 % of Control
- MATE1-mediated uptake of MPP+, % of Control (human MATE1; Uric acid 500 µM, replicates and mean, mean): 100.7 % of Control

Compound: inulin
- Inulin Clearance ([3]; control rats, individual rat): 5.90 mL/min/kg and 7.51 mL/min/kg and 6.75 mL/min/kg
- Inulin Clearance ([3]; control rats, mean): 6.72 mL/min/kg
- Inulin Clearance ([3]; hyperuricemic rats, individual rat): 7.92 mL/min/kg and 4.99 mL/min/kg and 6.15 mL/min/kg and 4.14 mL/min/kg and 3.58 mL/min/kg
- Inulin Clearance ([3]; hyperuricemic rats, mean): 5.36 mL/min/kg
